Each block holds one molecule with its values, some of them ahead of it.
Tests used:
rhCOX-2 = molecular target: T1, rhCOX-2 (Homo sapiens, UniProt P35354); assay: Inhibition of recombinant human COX-2 (PGH2 converted to PGF2α, EIA); type: biochemical; details: for IC50: human recombinant COX-2, 30 min preincubation, 37° C.
T1 construct: made in house; microsomal preparation
T1 sequence (P35354 18-604): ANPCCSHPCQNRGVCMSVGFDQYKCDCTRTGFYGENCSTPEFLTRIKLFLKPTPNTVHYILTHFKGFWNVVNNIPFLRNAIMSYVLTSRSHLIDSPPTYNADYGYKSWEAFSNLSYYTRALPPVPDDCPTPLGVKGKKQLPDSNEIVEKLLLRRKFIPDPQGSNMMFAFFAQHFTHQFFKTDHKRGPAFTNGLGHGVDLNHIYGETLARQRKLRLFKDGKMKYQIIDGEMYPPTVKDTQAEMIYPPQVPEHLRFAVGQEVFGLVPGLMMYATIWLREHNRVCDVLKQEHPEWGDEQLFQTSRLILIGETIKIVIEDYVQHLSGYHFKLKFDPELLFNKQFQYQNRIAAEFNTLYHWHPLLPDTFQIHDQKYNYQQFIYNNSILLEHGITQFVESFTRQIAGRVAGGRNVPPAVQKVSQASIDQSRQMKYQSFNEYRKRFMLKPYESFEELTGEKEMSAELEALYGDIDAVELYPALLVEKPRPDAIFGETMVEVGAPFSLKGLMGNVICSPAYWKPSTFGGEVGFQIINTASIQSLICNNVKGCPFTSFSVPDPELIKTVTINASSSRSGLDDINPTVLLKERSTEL
Protocol: (§1) Representative compounds of this invention were evaluated for inhibition of COX-2 and COX-1 enzymes as follows. Human COX-1 and COX-2 cDNAs were cloned from human monocytes, untreated and LPS-treated respectively, by RT-PCR using oligonucleotide primers based on published hCOX-1 and hCOX-2 sequences (Jones et al., J. Biol. Chem., 268, 9049 (1993)). The cDNAs were then transfected into either Sf9 or CHO cells and subsequently converted into a microsomal preparation as described by Glaser et al (Eur. J. Pharmacol. 281, 107-111 (1995)). The microsomal human recombinant enzymes were diluted with buffer (100 mM Tris, pH 7.8 at 37° C.) containing 0.5 mM phenol ([…] total volume). The enzyme preparations were preincubated with vehicle (DMSO) or compounds in DMSO (1 % DMSO in final assay) for 30 min at 37° C. Excess hematin was added 1 min prior to initiation of reaction (1.25 mM final hematin) with 30 mM arachidonic acid (sodium salt). Final assay volume was 1.0 ml (100 mM Tris (pH 7.8), 0.5 mM phenol, 1.25 mM hematin and 30 mM arachidonic acid at 37° C.).
The reaction was incubated for 35 sec (maximum level of PGH2 accumulation as determined from time course studies), and terminated by addition of […] of SnCl2 (1 mg/ml) in 0.1N HCl. PGH2 is quantitatively converted to PGF2a by this reaction (50% efficiency of total conversion). The pH of each tube is adjusted to pH 3.0-3.5 with 0.1N--NaOH and extracted twice with 1.5 ml of ethyl acetate (75-90% efficiency per extraction). Combined ethyl acetate extracts were dried under N2 (g) and redissolved in EIA buffer (2.0 ml), and PGF2α ( was quantified by EIA.

purified ovine COX-1 = molecular target: T2, purified ovine COX-1 (Ovis aries, UniProt P05979); assay: Inhibition of purified ovine COX-1 (PGH2 converted to PGF2α, EIA); type: biochemical; details: for inhibition at 90 µM / inhibition at 270 µM / inhibition at 10 µM / inhibition at 30 µM: read-out: % inh of pur. bovine COX-1
T2 construct: purchased Cayman Chemicals (Ann Arbor, Mich.)
T2 sequence (P05979 25-600): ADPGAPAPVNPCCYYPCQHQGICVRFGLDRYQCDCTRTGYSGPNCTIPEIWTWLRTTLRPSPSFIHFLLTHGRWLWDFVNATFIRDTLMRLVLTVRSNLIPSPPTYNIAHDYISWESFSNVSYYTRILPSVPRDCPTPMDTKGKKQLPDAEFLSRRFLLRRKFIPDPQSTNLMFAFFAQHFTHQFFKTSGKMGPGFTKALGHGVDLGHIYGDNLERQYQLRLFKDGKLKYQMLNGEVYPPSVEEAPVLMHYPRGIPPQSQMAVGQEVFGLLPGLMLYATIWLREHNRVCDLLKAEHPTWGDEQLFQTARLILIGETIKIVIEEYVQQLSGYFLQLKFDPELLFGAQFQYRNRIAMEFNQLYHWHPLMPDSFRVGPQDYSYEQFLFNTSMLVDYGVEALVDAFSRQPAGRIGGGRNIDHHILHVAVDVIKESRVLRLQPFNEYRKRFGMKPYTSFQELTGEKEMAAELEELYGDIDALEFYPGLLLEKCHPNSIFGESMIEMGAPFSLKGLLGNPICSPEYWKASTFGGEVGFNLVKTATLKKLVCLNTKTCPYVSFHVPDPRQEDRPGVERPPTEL
Protocol: [The source words this procedure for another species and reports this species under the same test.] as §1, with “C.). The reaction was incubated for 35 sec (maximum level of PGH2 accumulation as determined from time course studies), and terminated by addition of […] of SnCl2 (1 mg/ml) in 0.1N HCl. PGH2 is quantitatively converted to PGF2a by this reaction (50% efficiency of total conversion). The pH of each tube is adjusted to pH 3.0-3.5 with 0.1N--NaOH and extracted twice with 1.5 ml of ethyl acetate (75-90% efficiency per extraction).” for “C.).”

[1] = Rogers et al., Neurology 43, 1609-1611 (1993); cited from earlier work
COX-2 = details: literature; cited from earlier work
[2] = Futaki et al., Gen. Pharmac. 24, 105-110, 1993; cited from earlier work
[3] = Futaki et al., Gen. Pharmac. 24, 105-110, 1993; cited from earlier work; remark: listed apart in the source

SMILES: CCCC1(CC(=O)O)CCCc2c1[nH]c1c(C(N)=O)ccc(C#N)c21 (centres unmarked) [Example 9, 8-Carboxamido-5-cyano-1-propyl-2,3,4,9-tetrahydro-1H-carbazole-1-acetic acid]
inhibition at 0.1 µM (rhCOX-2; read-out: % inh of rhCOX-2): 21%
inhibition at 90 µM (purified ovine COX-1): -37%

SMILES: CCCC1(CC(=O)O)OCCc2c1[nH]c1c(C)ccc(C#N)c21 (centres unmarked) [Example 2, 5-Cyano-8-methyl-1-propyl-1,3,4,9-tetrahydropyrano[3,4-b]indole-1-acetic acid]
inhibition at 3 µM (rhCOX-2; at 3 μM, read-out: % inh of rhCOX-2): 38%
inhibition at 90 µM (purified ovine COX-1): 86%

SMILES: CCCC1(CC(=O)O)CCCc2c1[nH]c1c(C)ccc(C#N)c21 (centres unmarked) [Example 8, 5-Cyano-1-propyl-8-methyl-2,3,4,9-tetrahydro-1H-carbazole-1-acetic acid]
inhibition at 1 µM (rhCOX-2; read-out: % inh of rhCOX-2): 44%
inhibition at 270 µM (purified ovine COX-1): 99%

SMILES: CCCC1(CC(=O)O)CCCc2c1[nH]c1c(C#N)ccc(C#N)c21 (centres unmarked) [Example 12, 5,8-Dicyano-1-propyl-2,3,4,9-tetrahydro-1H-carbazole-1-acetic acid]
inhibition at 1 µM (rhCOX-2; read-out: % inh of rhCOX-2): 78%
inhibition at 270 µM (purified ovine COX-1): 98%

SMILES: CCCC1(CC(=O)O)OCCc2c1[nH]c1cccc(C#N)c21 (centres unmarked) [Example 4, 5-Cyano-1-propyl-1,3,4,9-tetrahydropyrano[3,4-b]indole-1-acetic acid]
IC50 (rhCOX-2): 1.7 µM
IC50 (purified ovine COX-1; purified ovine COX-1, 30 min preincubation, 37° C.): > 1000 µM

SMILES: C=CCC1(CC(=O)O)CCCc2c1[nH]c1c(F)ccc(C#N)c21 (centres unmarked) [Example 5, 1-Allyl-5-cyano-8-fluoro-2,3,4,9-tetrahydro-1H-carbazole-1-acetic acid]
IC50 (rhCOX-2): 0.1 µM
inhibition at 10 µM (purified ovine COX-1): 93%

SMILES: COc1ccc2c(c1)c(CC(=O)O)c(C)n2C(=O)c1ccc(Cl)cc1 [Indomethacin]
treatment of Alzheimer's disease [1]: useful in the treatment of Alzheimer's disease
selectivity for inhibition of COX-2 (COX-2): relatively non-selective inhibitor of COX-1 and COX-2

SMILES: CCc1cccc2c3c([nH]c12)C(CC)(CC(=O)O)OCC3 (centres unmarked) [etodolac]
selectivity for inhibition of COX-2 (COX-2): tenfold

SMILES: CCC1(CC(=O)O)OCCc2c1[nH]c1cccc(C#N)c21 (centres unmarked) [Example 3, 5-Cyano-1-ethyl-1,3,4,9-tetrahydropyrano[3,4-b]indole-1-acetic acid]
IC50 (rhCOX-2): 0.57 µM
inhibition at 30 µM (purified ovine COX-1): 47%
inhibition at 270 µM (purified ovine COX-1): 31%

SMILES: C=CCC1(CC(=O)O)CCCc2c1[nH]c1c(C)ccc(C#N)c21 (centres unmarked) [Example 7, 1-Allyl-5-cyano-8-methyl-2,3,4,9-tetrahydro-1H-carbazole-1-acetic acid]
inhibition at 0.3 µM (rhCOX-2; at 0.3 μM, read-out: % inh of rhCOX-2): 75%
inhibition at 30 µM (purified ovine COX-1): 99%

SMILES: CS(=O)(=O)Nc1ccc([N+](=O)[O-])cc1OC1CCCCC1 [N-(2-cyclohexyloxy-4-nitrophenyl)methanesulfonamide]
antiinflammatory effect [2]: effective antiinflammatory
gastric side effects [3]: lacks gastric side effects
selectivity for inhibition of COX-2 (COX-2): selective COX-2 inhibitor

Further lines, results first:

inhibition at 0.1 µM (rhCOX-2; read-out: % inh of rhCOX-2): 31%
inhibition at 90 µM (purified ovine COX-1): 100%
SMILES: CCCC1(CC(=O)O)CCCc2c1[nH]c1cc(C#N)ccc21 (centres unmarked) [Example 13, 7-Cyano-1-propyl-2,3,4,9-tetrahydro-1H-carbazole-1-acetic acid]

IC50 (rhCOX-2): 1 µM
SMILES: CCCC1(CC(=O)O)OCCc2c1[nH]c1c(F)ccc(C#N)c21 (centres unmarked) [Example 1, 5-Cyano-8-fluoro-1-propyl-1,3,4,9-tetrahydropyrano[3,4-b]indole-1-acetic acid]

inhibition at 1 µM (rhCOX-2; read-out: % inh of rhCOX-2): 91%
inhibition at 270 µM (purified ovine COX-1): 86%
SMILES: C=CCC1(CC(=O)O)CCCc2c1[nH]c1c(C#N)ccc(C#N)c21 (centres unmarked) [Example 11, 1-Allyl-5,8-dicyano-2,3,4,9-tetrahydro-1H-carbazole-1-acetic acid]

inhibition at 0.1 µM (rhCOX-2; read-out: % inh of rhCOX-2): 18%
inhibition at 90 µM (purified ovine COX-1): 74%
SMILES: CCCC1(CC(=O)O)CCCc2c1[nH]c1cccc(C#N)c21 (centres unmarked) [Example 10, 5-Cyano-1-propyl-2,3,4,9-tetrahydro-1H-carbazole-1-acetic acid]

IC50 (rhCOX-2): 0.32 µM
inhibition at 10 µM (purified ovine COX-1): 73%
SMILES: CCCC1(CC(=O)O)CCCc2c1[nH]c1c(F)ccc(C#N)c21 (centres unmarked) [Example 6, 5-Cyano-8-fluoro-1-propyl-2,3,4,9-tetrahydro-1H-carbazole-1-acetic acid]
